pIC50: −log10 of the molar value. Read-outs that look alike come from different tables or passages of the source.
Assays:
[1] = Liver microsome metabolism assay; conditions: CD1, mouse, liver microsomes
Experimental: (§2) Experimental Materials: Mixed CD1 mouse liver microsomal enzyme protein was purchased from Xenotech (#M1000), and NADPH was purchased from Abmole (#M9076).
(§3) 1. To the liver microsomal enzyme reaction system, 210 μL of phosphate buffer was added, followed by 12.5 μL of liver microsomal enzyme at a concentration of 20 mg/mL. Then, 25 μL of NADPH at a concentration of 10 mM was added to the system, mixed well, and incubated in a 37° C. water bath with shaking for 10 minutes.
(§4) 2. The test compound, stored at a concentration of 10 mM, was diluted to 100 μM with DMSO. Then, 2.5 μL of the diluted test compound was added to the reaction system, mixed well, and incubated in a 37° C. water bath with shaking.
(§5) 3. At 0.5, 5, 10, 20, 30, and 60 minutes, 25 μL of the enzyme reaction mixture was taken and added to 125 μL of cold acetonitrile containing dexamethasone as an internal standard. The mixture was centrifuged at 4000 g for 20 minutes, and the supernatant was mixed with an equal volume of distilled water. The mixed sample was then subjected to quantitative analysis by liquid chromatography-mass spectrometry.
(§6) 4. Calculation of in vitro drug metabolism half-life and drug clearance rate:
(§7) t1/2=−0.693/k. (k: the slope of the linear regression of the natural logarithm of the percentage of drug remaining versus incubation time).

PARP2 = PARP2 (Homo sapiens (Human), UniProt Q9UGN5); assay: PARP2 trapping assay; assay type: biochemical; conditions: read-out: Inhibitory Effect on PARP2 Trapping IC50
Experimental: (§1) [table] […] 1. A 4× enzyme reaction mixture, comprising PARP1, PARP2, and GST-Tb antibody, was prepared with the buffer and 4 μL of the enzyme reaction mixture was added to a 384-well plate. 2. A 4×PARP1 and PARP2 probe reaction mixture was prepared with the buffer and 4 μL of the probe reaction mixture was added to the 384-well plate. 3. A series of gradient-diluted compounds were prepared and 4 μL of the diluted compounds were added to the 384-well plate, and incubated at room temperature for 45 minutes. 4. After incubation, 4 μL of 4×NAD reaction mixture was added to the 384-well plate and incubated at room temperature for 10 minutes. 5. After incubation, the plate was read using a plate reader. 6. Data Analysis: The percentage inhibition rate was calculated as follows: Inhibition Rate (%)=(Reading of Compound Group−Reading of Blank Group)/(Reading of Vehicle Control Group−Reading of Blank Group).

PARP1 [2] = molecular target: T1, PARP1 (Homo sapiens (Human), UniProt P09874); assay: PARP enzyme activity assay (PARP1 chemiluminescent assay kit); assay type: biochemical; conditions: enzyme inhibitory activity, read-out: PARP-1 IC50
Procedure, shortened: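 Chemiluminescent kit measuring PARP1 poly(ADP-ribosylation) of plate-coated histones in presence of activated DNA; compounds in 1:3 serial dilution, top 10 μM before 10-fold buffer dilution. Enzyme (2.5 ng/μL added) reacted 60 min at room temperature, detected by streptavidin-HRP luminescence; IC50 from log-concentration vs % inhibition.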

[3] = test system: MDA-MB-436 breast cancer cells; assay: Cell proliferation assay, MDA-MB-436; assay type: cell-based; conditions: Homo sapiens, MDA-MB-436, 168 h, read-out: MDA-MB-436 Cell IC50
Procedure, shortened: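 Cells seeded 16 h, then exposed to a 9-point 1:3 compound dilution series for 7 days at 37° C., 5% CO2; DMSO-matched and cell-free controls. Viability by CellCounting-Lite luminescence; IC50 from log concentration versus % inhibition.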

[4] = test system: UWB1.289 ovarian cancer cells; assay: Cell proliferation assay, UWB1.289; assay type: cell-based; conditions: UWB1289, 168 h, read-out: UWB1.289 Cell IC50
Experimental: Experimental Materials: MDA-MB-436 or UWB1.289 cell lines were purchased from Cobioer Biosciences Co. Ltd. (Nanjing, China). The STR identification results were a complete match, and mycoplasma testing was negative. MDA-MB-436 cells were cultured in DMEM complete medium containing 10% fetal bovine serum, 1% penicillin-streptomycin, 1% insulin, and 16 μg/mL glutathione; UWB1.289 cells were cultured in RMPI1640 complete medium containing 10% fetal bovine serum and 1% penicillin-streptomycin.
1. MDA-MB-436 or UWB1.289 cells were cultured in the aforementioned medium (culture conditions: 37° C., 5.0% CO2 in air) until they reached the logarithmic growth phase. The cells were then digested with trypsin containing 0.25% EDTA, centrifuged at 1000 rpm, and the supernatant was discarded. Cell culture medium was added, and the cell suspension was adjusted to 2×10^4/mL after counting. 135 μL of the cell suspension per well was taken and cultured in a 96-well cell culture plate for 16 hours (culture conditions: 37° C., 5.0% CO2 in air).
2. The test compounds, stored at a concentration of 10 mM, were diluted 2.5 times with DMSO and then serially diluted in a 1:3 gradient (9 gradients). The gradient-diluted samples were further diluted 40 times with serum-free medium, and 15 μL of each was added to the 96-well cell culture plate. The positive control group received serum-free medium containing the same concentration of DMSO, and the negative control group received medium without cells. The cells were then cultured for an additional 7 days.
3. After the culture period, the cell culture plate was placed at room temperature for 30 minutes. Then, 100 μL of CellCounting-Lite 2.0 reagent (Vazyme, #DD1101) was added to each well, mixed thoroughly, and incubated in the dark at room temperature for 10 minutes. The luminescence signal was read using a Synergy HTX multi-mode reader.
4. Data analysis was performed using GraphPad Prism 8.0 software. The inhibition rate (%) was calculated as 100*(average luminescence signal of the positive control group−luminescence signal of the compound)/(average luminescence signal of the positive control group−average luminescence signal of the negative control group). The IC50 value was obtained by plotting the logarithm of the compound concentration against the percentage inhibition rate.

[5] = Evaluation of pharmacokinetics in rats; assay type: in vivo; conditions: male, SD, rat, plasma, 1 mg/kg, oral gavage (PO, 1 mpk)
From the text: Test Animals: 6-8 Week Old Male SD Rats
Food was restored two hours after dosing.

PARP1 [6] = molecular target: T1, PARP1; assay: PARP1 trapping assay; assay type: biochemical; conditions: read-out: Inhibitory Effect on PARP1 Trapping IC50
Experimental: as §1

[7] = Evaluation of pharmacokinetics in mice; conditions: male, ICR (CD1), mouse, plasma, po, 10 mg/kg
Experimental: (§8) Test Objective: The pharmacokinetics of the example compounds of the present application were tested in mice. By measuring the drug concentration in mouse plasma, the pharmacokinetic behavior of the compounds of the present invention was studied to evaluate their pharmacokinetic characteristics.
(§9) Test Animals: 6-8 Week Old Male ICR (CD1) Mice
(§10) Oral Gavage Drug Preparation: An appropriate amount of the test compound was first weighed and dissolved in DMSO (Macklin cas: 67-68-5) to prepare a 20 mg/mL solution. Then, 75 μL of this solution was added to 150 μL of Solutol (Sigma cas: 70142-34-6), followed by 1.275 mL of 20% Captisol (Selleck cas: 182410-00-0), resulting in a final drug concentration of 1 mg/mL.
(§11) Intravenous Injection Drug Preparation: An appropriate amount of the test compound was first weighed and dissolved in DMSO (Macklin cas: 67-68-5) to prepare a 30 mg/mL solution. Then, 15 μL of this solution was added to 150 μL of Solutol (Sigma cas: 70142-34-6), followed by 1.335 mL of 20% Captisol (Selleck cas: 182410-00-0), resulting in a final drug concentration of 0.3 mg/mL.
(§12) Procedures: The mice were fasted overnight with free access to water before the experiment. Food was restored two hours after dosing. Blood samples were collected at different time points after intravenous injection or oral gavage of the test compound in mice, and the compound concentration in plasma was measured. Approximately 50 μL of blood was collected from each animal using a capillary sampling tube via the orbital venous plexus, with heparin sodium as an anticoagulant. Blood samples were placed on ice, centrifuged at 3500 r/min for 10 minutes to separate the plasma, and 20 μL of the collected plasma was added to 200 μL of acetonitrile (Merck cas: 75-05-8) containing 200 nM dexamethasone (Selleck cas: 50-02-2) as an internal standard. The mixture was centrifuged at 8000 r/min for 20 minutes. After centrifugation, 150 μL of the supernatant was transferred to a new centrifuge tube, and 150 μL of 0.1% formic acid (Fisher cas: 207868) was added. The mixture was mixed well, and 5 μL of the sample was subjected to quantitative analysis by liquid chromatography-mass spectrometry (Q-TOF LC/MS).
(§13) The test compound was serially diluted with DMSO to cover the compound concentrations expected in plasma samples to be tested, with a blank sample (containing only DMSO) included.
(§14) 2 μL of each diluted sample at various concentrations was added to 18 μL of normal ICR mouse plasma, mixed, and then added to 200 μL of acetonitrile (Merck cas: 75-05-8) containing 200 nM dexamethasone (Selleck cas: 50-02-2) as an internal standard. The mixture was centrifuged for 20 minutes (8000 r/min). 150 μL of the supernatant was transferred to a new centrifuge tube, and 150 μL of 0.1% formic acid (Fisher cas: 207868) was added. The mixture was mixed well, and 5 μL of the sample was subjected to quantitative analysis by liquid chromatography-mass spectrometry (Q-TOF LC/MS).
(§15) The final standard curve was plotted using the concentration of the test compound after dilution on the abscissa and the ratio of the signal of the compound to the internal standard (dexamethasone) on the ordinate. The standard curve was generated using linear regression with GraphPad Prism 8 software (R2>0.9900).
(§16) Data Analysis: calculation of pharmacokinetic parameters: the concentration of the test compound in plasma at different time points after intravenous injection or oral gavage in ICR mice was determined based on the above standard curve, and pharmacokinetic parameters (T1/2, Cmax, AUC, etc.) were calculated using the Phoenix WinNonlin 8.1 non-compartmental analysis model.

in vitro = conditions: CD1, mouse, microsomes
Experimental: as §2, §3, §4, §5, §6, §7

in vivo = conditions: male, ICR (CD1), mouse, po, 10 mg/kg
Experimental: as §8, §9, §10, §11, §12, §13, §14, §15, §16

PARP2, sequence (Q9UGN5 whole entry): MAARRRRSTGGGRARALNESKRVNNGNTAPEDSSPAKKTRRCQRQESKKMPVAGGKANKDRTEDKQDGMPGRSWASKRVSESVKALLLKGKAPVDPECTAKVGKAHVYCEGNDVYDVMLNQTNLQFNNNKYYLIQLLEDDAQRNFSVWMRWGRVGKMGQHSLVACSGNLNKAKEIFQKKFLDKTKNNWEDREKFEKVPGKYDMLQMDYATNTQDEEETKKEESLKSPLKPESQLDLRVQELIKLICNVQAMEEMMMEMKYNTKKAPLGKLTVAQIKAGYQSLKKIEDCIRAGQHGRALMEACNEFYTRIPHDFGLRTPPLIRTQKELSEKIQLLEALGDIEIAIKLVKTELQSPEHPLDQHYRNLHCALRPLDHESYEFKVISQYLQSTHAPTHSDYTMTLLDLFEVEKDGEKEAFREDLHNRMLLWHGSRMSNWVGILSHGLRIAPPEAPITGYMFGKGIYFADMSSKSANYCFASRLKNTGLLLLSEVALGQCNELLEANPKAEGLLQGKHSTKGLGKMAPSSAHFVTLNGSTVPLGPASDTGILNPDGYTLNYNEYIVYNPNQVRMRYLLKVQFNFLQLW
T1 sequence (P09874 whole entry): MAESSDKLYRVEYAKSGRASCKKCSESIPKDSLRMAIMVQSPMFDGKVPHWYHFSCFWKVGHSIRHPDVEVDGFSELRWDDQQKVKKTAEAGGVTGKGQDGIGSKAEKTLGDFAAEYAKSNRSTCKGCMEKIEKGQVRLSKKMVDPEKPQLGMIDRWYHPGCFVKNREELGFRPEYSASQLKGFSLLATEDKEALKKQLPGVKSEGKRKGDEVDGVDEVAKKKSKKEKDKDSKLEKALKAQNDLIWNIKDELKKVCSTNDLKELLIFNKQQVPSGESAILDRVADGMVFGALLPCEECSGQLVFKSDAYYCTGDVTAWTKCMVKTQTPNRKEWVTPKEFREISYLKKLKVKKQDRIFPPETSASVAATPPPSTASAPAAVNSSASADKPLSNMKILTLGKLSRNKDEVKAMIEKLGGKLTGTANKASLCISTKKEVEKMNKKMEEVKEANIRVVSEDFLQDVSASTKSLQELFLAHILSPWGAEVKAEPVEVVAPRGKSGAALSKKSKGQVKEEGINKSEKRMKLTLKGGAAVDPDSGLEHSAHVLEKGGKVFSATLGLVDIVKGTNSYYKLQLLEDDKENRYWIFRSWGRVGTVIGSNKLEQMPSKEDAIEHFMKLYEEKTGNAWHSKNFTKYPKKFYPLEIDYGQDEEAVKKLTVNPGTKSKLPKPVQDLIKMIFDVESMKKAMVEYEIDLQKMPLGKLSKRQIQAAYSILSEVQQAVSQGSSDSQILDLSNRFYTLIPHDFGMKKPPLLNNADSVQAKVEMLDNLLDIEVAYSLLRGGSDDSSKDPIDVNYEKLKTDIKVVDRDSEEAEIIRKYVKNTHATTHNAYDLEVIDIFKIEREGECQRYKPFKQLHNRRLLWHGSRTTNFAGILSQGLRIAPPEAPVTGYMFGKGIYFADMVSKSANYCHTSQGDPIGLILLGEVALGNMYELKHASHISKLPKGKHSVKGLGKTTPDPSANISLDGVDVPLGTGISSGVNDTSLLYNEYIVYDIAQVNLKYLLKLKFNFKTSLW

| pIC50 ([4]; proliferation, 7 days) | AUC(0-inf) [7] [µg·h/mL] | Cmax [7] [ng/mL] | half-life [7] [h] | Compound | microsomal CLint at 1 µM [1] [µL/min/mg] | pIC50 (PARP2) | pIC50 (PARP1 [2]) | pIC50 [3] | pIC50 [4] | AUC(0-inf) [5] [µg·h/mL] | Cmax [5] [ng/mL] | half-life [5] [h] | pIC50 (PARP1 [6]) | pIC50 ([3]; proliferation, 7 days) | microsomal CLint at 1 µM (in vitro) [µL/min/mg] | AUC(0-inf) (in vivo) [µg·h/mL] | Cmax (in vivo) [ng/mL] | half-life (in vivo) [h] |
| --- | --- | --- | --- | --- | --- | --- | --- | --- | --- | --- | --- | --- | --- | --- | --- | --- | --- | --- |
|  |  |  |  | CNC(=O)c1ccc(N2CCN(Cc3cc4[nH]c(=O)c(C(F)(F)F)c(C)c4cn3)CC2)cn1 [Compound 2, N-methyl-5-(4-((4-methyl-2-oxo-3-(trifluoromethyl)-1,2-dihydro-1,6-naphthyridin-7-yl)methyl)piperazin-1-yl)picolinamide] | 0.39 | 6.86 | 8.50 | 8.63 | 8.56 | 19.3 | 2000 | 5.07 | 8.91 |  |  |  |  |  |
| 7.95 | 1550 | 50200 | 25.9 | CNC(=O)c1ccc(N2CCN(Cc3cnc4c(C)c(C(F)(F)F)c(=O)[nH]c4c3)[C@@H](C)C2)cn1 [Compound 52, (S)—N-methyl-5-(3-methyl-4-((8-methyl-6-oxo-7-(trifluoromethyl)-5,6-dihydro-1,5-naphthyridin-3-yl)methyl)piperazin-1-yl)picolinamide] |  | 6.57 |  |  |  | 18.8 | 1450 | 5.67 | 8.80 | 8.30 |  |  |  |  |
| 8.48 | 987 | 48200 | 17.9 | CNC(=O)c1ccc(N2CCN(Cc3cnc4c(C)c(C(F)(F)F)c(=O)[nH]c4c3)C[C@H]2C)cn1 [Compound 54, (R)—N-methyl-5-(2-methyl-4-((8-methyl-6-oxo-7-(trifluoromethyl)-5,6-dihydro-1,5-naphthyridin-3-yl)methyl)piperazin-1-yl)picolinamide] |  | 6.72 |  |  |  | 16.8 | 1690 | 7.2 | 8.88 | 8.36 |  |  |  |  |
|  |  |  |  | CNC(=O)c1cnc(C2=CCN(Cc3cnc4c(C)c(C(F)(F)F)c(=O)[nH]c4c3)CC2)cn1 [Compound 79, N-methyl-5-(1-((8-methyl-6-oxo-7-(trifluoromethyl)-5,6-dihydro-1,5-naphthyridin-3-yl)methyl)-1,2,3,6-tetrahydropyridin-4-yl)pyrazine-2-carboxamide] |  |  |  |  |  |  |  |  |  | 7.73 | 0.69 | 2420 | 57000 | 30.5 |
|  |  |  |  | CNC(=O)c1ccc(C2=CCN(Cc3cc4[nH]c(=O)c(C(F)(F)F)c(C)c4cn3)CC2)cn1 [Compound 89, N-methyl-1′-((4-methyl-2-oxo-3-(trifluoromethyl)-1,2-dihydro-1,6-naphthyridin-7-yl)methyl)-1′,2′,3′,6′-tetrahydro-[3,4′-bipyridine]-6-carboxamide] |  |  |  |  |  |  |  |  | 8.82 | 8.97 | 0.81 |  |  |  |

| Compound | pIC50 ([4]; proliferation, 7 days) | AUC(0-inf) [7] [µg·h/mL] | Cmax [7] [ng/mL] | half-life [7] [h] | microsomal CLint at 1 µM [1] [µL/min/mg] | pIC50 (PARP2) | pIC50 (PARP1 [2]) | pIC50 [3] | pIC50 [4] | AUC(0-inf) [5] [µg·h/mL] | Cmax [5] [ng/mL] | half-life [5] [h] | pIC50 (PARP1 [6]) | pIC50 ([3]; proliferation, 7 days) | microsomal CLint at 1 µM (in vitro) [µL/min/mg] | AUC(0-inf) (in vivo) [µg·h/mL] | Cmax (in vivo) [ng/mL] | half-life (in vivo) [h] |
| --- | --- | --- | --- | --- | --- | --- | --- | --- | --- | --- | --- | --- | --- | --- | --- | --- | --- | --- |
| CNC(=O)c1ccc(C2=CCN(Cc3cnc4c(C)c(C(F)(F)F)c(=O)[nH]c4c3)CC2)cn1 [Compound 14, N-methyl-1′-((8-methyl-6-oxo-7-(trifluoromethyl)-5,6-dihydro-1,5-naphthyridin-3-yl)methyl)-1′,2′,3′,6′-tetrahydro-[3,4′-bipyridine]-6-carboxamide] | 8.31 | 2720 | 128000 | 27.8 |  | 6.75 | 9.08 |  |  | 19.2 | 1770 | 6.35 | 8.86 | 8.62 |  |  |  |  |
